Experimental data published in ChEMBL document CHEMBL4190322, “Structure-based development of novel triazoles and related thiazolotriazoles as anticancer agents and Cdc25A/B phosphatase inhibitors. Synthesis, in vitro biological evaluation, molecular docking and in silico ADME-T studies” (Eur J Med Chem, 2017).
Active and inactive are the calls of the source. The rule behind the calls is not given here.

Legend:
Type in all cases: functional
A498 = experiment: Growth inhibition of human A498 cells at 10 uM after 48 hrs by SRB assay relative to control; details: A498, 48 h, read-out: GI
RPMI-8226 = experiment: Growth inhibition of human RPMI8226 cells at 10 uM after 48 hrs by SRB assay relative to control; details: RPMI-8226, 48 h, read-out: GI
HOP-92 = experiment: Growth inhibition of human HOP92 cells at 10 uM after 48 hrs by SRB assay relative to control; details: HOP-92, 48 h, read-out: GI
NCI-H226 = experiment: Growth inhibition of human NCI-H226 cells at 10 uM after 48 hrs by SRB assay relative to control; details: NCI-H226, 48 h, read-out: GI
CCRF-CEM = experiment: Growth inhibition of human CCRF-CEM cells at 10 uM after 48 hrs by SRB assay relative to control; details: read-out: GI
MOLT-4 = experiment: Growth inhibition of human MOLT4 cells at 10 uM after 48 hrs by SRB assay relative to control; details: MOLT-4, 48 h, read-out: GI
A549 = experiment: Growth inhibition of human A549 cells at 10 uM after 48 hrs by SRB assay relative to control; details: A549, 48 h, read-out: GI
HCT-116 = experiment: Growth inhibition of human HCT116 cells at 10 uM after 48 hrs by SRB assay relative to control; details: HCT-116, 48 h, read-out: GI
RXF 393 = experiment: Growth inhibition of human RXF393 cells at 10 uM after 48 hrs by SRB assay relative to control
SR = experiment: Growth inhibition of human SR cells at 10 uM after 48 hrs by SRB assay relative to control; details: read-out: GI
PC-3 = experiment: Growth inhibition of human PC3 cells at 10 uM after 48 hrs by SRB assay relative to control; details: PC-3, 48 h, read-out: GI
U-251 = experiment: Growth inhibition of human U251 cells at 10 uM after 48 hrs by SRB assay relative to control; details: U-251, 48 h, read-out: GI
UO-31 = experiment: Growth inhibition of human UO31 cells at 10 uM after 48 hrs by SRB assay relative to control; details: UO-31, 48 h, read-out: GI
SNB-75 = experiment: Growth inhibition of human SNB75 cells at 10 uM after 48 hrs by SRB assay relative to control; details: SNB-75, 48 h, read-out: GI
HL-60 = experiment: Growth inhibition of human HL60 cells at 10 uM after 48 hrs by SRB assay relative to control
MDA-MB-468 = experiment: Growth inhibition of human MDA-MB-468 cells at 10 uM after 48 hrs by SRB assay relative to control
OVCAR-8 = experiment: Growth inhibition of human OVCAR8 cells at 10 uM after 48 hrs by SRB assay relative to control
Hs-578T = experiment: Growth inhibition of human Hs 578T cells at 10 uM after 48 hrs by SRB assay relative to control
NCI-H522 = experiment: Growth inhibition of human NCI-H522 cells at 10 uM after 48 hrs by SRB assay relative to control; details: NCI-H522, 48 h, read-out: GI
SK-OV-3 = experiment: Growth inhibition of human SKOV3 cells at 10 uM after 48 hrs by SRB assay relative to control; details: SK-OV-3, 48 h, read-out: GI
HOP-62 = experiment: Growth inhibition of human HOP62 cells at 10 uM after 48 hrs by SRB assay relative to control
SNB-19 = experiment: Growth inhibition of human SNB19 cells at 10 uM after 48 hrs by SRB assay relative to control; details: SNB-19, 48 h, read-out: GI
786-0 = experiment: Growth inhibition of human 786-0 cells at 10 uM after 48 hrs by SRB assay relative to control; details: 786-0, 48 h, read-out: GI
CAKI-1 = experiment: Growth inhibition of human Caki1 cells at 10 uM after 48 hrs by SRB assay relative to control; details: CAKI-1, 48 h, read-out: GI
K562 = experiment: Growth inhibition of human K562 cells at 10 uM after 48 hrs by SRB assay relative to control; details: K562, 48 h, read-out: GI
NCI/ADR-RES = experiment: Growth inhibition of human NCI/ADR-RES cells at 10 uM after 48 hrs by SRB assay relative to control; details: read-out: GI
UACC-257 = experiment: Growth inhibition of human UACC257 cells at 10 uM after 48 hrs by SRB assay relative to control
MCF7 = experiment: Growth inhibition of human MCF7 cells at 10 uM after 48 hrs by SRB assay relative to control; details: MCF7, 48 h, read-out: GI
SK-MEL-5 = experiment: Growth inhibition of human SK-MEL-5 cells at 10 uM after 48 hrs by SRB assay relative to control
SF-268 = experiment: Growth inhibition of human SF268 cells at 10 uM after 48 hrs by SRB assay relative to control; details: SF-268, 48 h, read-out: GI
LOX IMVI = experiment: Growth inhibition of human LOXIMVI cells at 10 uM after 48 hrs by SRB assay relative to control; details: read-out: GI
HT-29 = experiment: Growth inhibition of human HT-29 cells at 10 uM after 48 hrs by SRB assay relative to control
KM12 = experiment: Growth inhibition of human KM12 cells at 10 uM after 48 hrs by SRB assay relative to control; details: KM12, 48 h, read-out: GI
NCI-H322M = experiment: Growth inhibition of human NCI-H322M cells at 10 uM after 48 hrs by SRB assay relative to control
UACC-62 = experiment: Growth inhibition of human UACC62 cells at 10 uM after 48 hrs by SRB assay relative to control
NCI-H23 = experiment: Growth inhibition of human NCI-H23 cells at 10 uM after 48 hrs by SRB assay relative to control; details: NCI-H23, 48 h, read-out: GI
SK-MEL-2 = experiment: Growth inhibition of human SK-MEL-2 cells at 10 uM after 48 hrs by SRB assay relative to control
OVCAR-3 = experiment: Growth inhibition of human OVCAR3 cells at 10 uM after 48 hrs by SRB assay relative to control
Malme-3M = experiment: Growth inhibition of human MALME-3M cells at 10 uM after 48 hrs by SRB assay relative to control
OVCAR-4 = experiment: Growth inhibition of human OVCAR4 cells at 10 uM after 48 hrs by SRB assay relative to control; details: OVCAR-4, 48 h, read-out: GI

## COc1ccc(Cc2nnc3sc(SCc4ccccc4)nn23)cc1
A498
  inhibition of growth at 10 µM: 19.7%
RPMI-8226
  inhibition of growth at 10 µM: 2.01%
HOP-92
  inhibition of growth at 10 µM: 27.6%
NCI-H226
  inhibition of growth at 10 µM: 14%
CCRF-CEM
  inhibition of growth at 10 µM: 25.1%
MOLT-4
  inhibition of growth at 10 µM: 11.6%
A549
  inhibition of growth at 10 µM: 3.43%
HCT-116
  inhibition of growth at 10 µM: 1.27%
RXF 393
  growth inhibition (GI): inactive
SR
  inhibition of growth at 10 µM: 12.9%
PC-3
  inhibition of growth at 10 µM: 6%
U-251
  inhibition of growth at 10 µM: 2.8%
UO-31
  inhibition of growth at 10 µM: 20.6%
SNB-75
  inhibition of growth at 10 µM: 11%
HL-60
  growth inhibition (GI): inactive
MDA-MB-468
  growth inhibition (GI): inactive
OVCAR-8
  growth inhibition (GI): inactive
Hs-578T
  growth inhibition (GI): inactive
NCI-H522
  inhibition of growth at 10 µM: 16.8%
SK-OV-3
  inhibition of growth at 10 µM: 1.1%
HOP-62
  growth inhibition (GI): inactive
SNB-19
  inhibition of growth at 10 µM: 10.6%
786-0
  inhibition of growth at 10 µM: 6.46%
CAKI-1
  inhibition of growth at 10 µM: 5.66%
K562
  inhibition of growth at 10 µM: 12.4%
NCI/ADR-RES
  inhibition of growth at 10 µM: 3.11%
UACC-257
  growth inhibition (GI): inactive
MCF7
  inhibition of growth at 10 µM: 5.28%
SK-MEL-5
  growth inhibition (GI): inactive
SF-268
  inhibition of growth at 10 µM: 2.02%
LOX IMVI
  inhibition of growth at 10 µM: 15.8%
HT-29
  growth inhibition (GI): inactive
KM12
  inhibition of growth at 10 µM: 6%
NCI-H322M
  growth inhibition (GI): inactive
UACC-62
  growth inhibition (GI): inactive
NCI-H23
  inhibition of growth at 10 µM: 7.22%
SK-MEL-2
  growth inhibition (GI): inactive
OVCAR-3
  growth inhibition (GI): inactive
Malme-3M
  growth inhibition (GI): inactive
OVCAR-4
  inhibition of growth at 10 µM: 8.58%
